Source: patent publication US9283208B2, “Medicaments and methods for treating cancer” (NIIKI PHARMA INC., priority 2011, dated 2016)
Marks after values point to notes of the source that are not given here.

Legend:
certain types of cancer = details: See U.S. Pat. No. 7,338,946; cited from earlier work
[1] = tested on: patients with advanced solid tumors refractory to treatment; test: Phase I dose-escalation trial (US): safety, tolerability, DLT and MTD; type: in vivo, human
Text: (§1) Two Phase I dose-escalation clinical studies involving sodium trans-[tetrachlorobis(1H-indazole)ruthenate (III)] (“test drug”) have been conducted. The primary objective of both studies is to determine the safety, tolerability and maximal tolerated dose (MTD) of the test drug. Secondary objectives are to estimate the PK parameters, to identify any preliminary evidence of anti-tumor activity of the test drug in patients with advanced cancers, and to explore pharmacodynamic (PD) endpoints which may be of use in the further development of the test drug.
(§2) In the first trial which has been conducted in two centers in the US, the “test drug” was given intravenously once a week, i.e., on days 1, 8, and 15 of each 28-day cycle to patients with advanced solid tumors refractory to treatment. The patients had advanced solid tumors that had been heavily treated previously, had failed an average of 7 previous lines of chemotherapy, and had progressing disease at the time of entry into the trial. Standard 3+3 design with expanded cohort up to 25 patients at the maximal tolerated dose (MTD).
Major Inclusion/Exclusion Criteria: • Patients≧18 years with histologically or cytologically confirmed advanced solid tumors refractory to standard therapies • ECOG PS 0 or 1 • Adequate hematologic, hepatic and renal function • No symptomatic CNS metastases, no primary brain tumors • No evidence of ischemia, recent MI, or significant abnormality on ECG • No Peripheral neuropathy ≧Grade 2 • Minimum life expectancy ≧12 weeks
Definition of Dose Limiting Toxicity (DLT):
Toxicity severity graded according to the CTCAE (ver. 3.0); occurring during Cycle 1 and related to test drug: • Grade 4 neutropenia for ≧7 days • Febrile neutropenia • Grade 4 thrombocytopenia or Grade • ≧Grade 2 neurotoxicity • ≧Grade 2 cardiotoxicity • Grade 2 hypersensitivity reaction or infusion reaction • Any other non-hematologic Grade 3 or 4 toxicity other than nausea/vomiting or alopecia • Inability to complete the first cycle due to any toxicity thought to be related to test drug.

[2] = tested on: patients with advanced solid tumors refractory to treatment; test: Phase I dose-escalation trial (UK): adverse reactions; type: in vivo, human; details: dose of 320 mg/m^2 and above
Description: (§3) The second trial was conducted in two centers in the United Kingdom (UK) with the test drug being administered on days 1 through 4 of each 21-day cycle to patients with advanced solid tumors refractory to treatment. The patients had been heavily pre-treated and had failed an average of 3 previous lines of chemotherapy. Dose escalation progressed from 20 to 500 mg/m^2.
(§4) Thereafter, in the US trial, in some patients, premedication of decadron (dexamethasone) was administered, with or without 5HT3 antagonists (serotonin antagonists) like ondansetron and granisetron. The decadron was given to prevent fever, at 4-10 mg IV. […] None of the patients premedicated with decadron had any incidence of infusion-related fever.

[3] = tested on: advanced solid tumors refractory to treatment; test: Phase I dose-escalation trial (US): anti-tumor activity (partial response or stable disease); type: in vivo, human
Text: as §1, §2
36 pts completed ≧one cycle of therapy and are evaluable to assess antitumor efficacy. […] All patients had PD at study entry.

[4] = tested on: patients with advanced solid tumors refractory to treatment; test: Infusional fever with or without steroid premedication (US trial); type: in vivo, human
Description: as §4

[5] = Pharmacokinetics in patients: urinary excretion of ruthenium; type: in vivo, human; details: in the 24 hours following Cycle 1 Day 1 dosing
Description: (§5) Pharmacokinetics: PK samples were obtained 0, 0.25, 0.5, 1, 2, 4, 6-8, 10-12, and 24 hours after the start of the infusion on Cycle 1 Day 1 as well as pre-infusion on Cycle 1 Day 8 and Cycle 2 Day 1. Plasma and urine were analyzed for total ruthenium [Ru] (free and bound). […] Peak plasma Ru levels were achieved by hour 2 (FIG. 2A). […] The estimated T½ is 91.4-112 hours.

[6] = tested on: advanced solid tumors refractory to treatment; test: Phase I dose-escalation trial (UK): anti-tumor effect; type: in vivo, human
Text: as §1, §3

[7] = Pharmacokinetics in patients: plasma total ruthenium; type: in vivo, human; details: for C1D8 Hour 0 ng/mL Ru / C2D1 Hour 0 ng/mL Ru: pre-infusion trough
Description: as §5

[8] = US trial, IV once a week on days 1, 8, 15 of 28-day cycle
[9] = 320 mg/m^2, total drug 630 mg, NET (carcinoid tumor of small intestine), 3 prior systemic therapies
[10] = 320 mg/m^2, total drug 630 mg, NET (carcinoid tumor of small intestine), 3 prior systemic therapies, listed as Sodium trans-[tetrachlorobis(1H-indazole)ruthenate (III)]

[Cl-].[Cl-].[Cl-].[Cl-].[Ru+3].c1ccc2[nH][nH+]cc2c1.c1ccc2[nH]ncc2c1.c1ccc2[nH]ncc2c1 [indazolium trans-[tetrachlorobis(1H-indazole)ruthenate (III)], reference compound]
inducing apoptosis in certain types of cancer (certain types of cancer): highly potent

[Cl][Ru-]([Cl])([Cl])[Cl].[Na+].c1ccc2[nH]ncc2c1.c1ccc2[nH]ncc2c1 [test drug, sodium trans-[tetrachlorobis(1H-indazole)ruthenate (III)]]
Patients w/ DLT ([1]; 320 mg/m^2, 7 patients dosed): 1
major adverse event related to the test drug ([1]; 320 mg/m^2 on days 1, 8, 15 of 28-day cycle, carcinoid tumor patient treated over 100 weeks): No major adverse event
Patients w/ DLT ([1]; 625 mg/m^2, 6 patients dosed): 1
Patients w/ DLT ([1]; 780 mg/m^2, 9 patients dosed): 3
DLT Seen at 780 mg/m^2 ([1]; 780 mg/m^2, patient, not premedicated with steroids): A person had an infusion reaction consisting of fever
time for Grade 2 creatinine elevation to return to baseline ([1]; 780 mg/m^2, person one): within 1 week.
DLT Seen at 780 mg/m^2 ([1]; 780 mg/m^2, person one, following Cycle 1 Day 1 dosing, fatigue): Grade 1 fatigue following Cycle 1 Day 1 dosing associated
DLT Seen at 780 mg/m^2 ([1]; 780 mg/m^2, person one, following Cycle 1 Day 1 dosing, nausea): person one had Grade 2 nausea, Grade 1 vomiting,
time for Grade 2 creatinine elevation to return to baseline ([1]; 780 mg/m^2, person two): ≤ 3 weeks.
DLT dose [1, 8]: 780 mg/m^2
maximal tolerated dose (MTD) [1, 8]: 625 mg/m^2
adverse reactions [2]: fever and chill were seen
Patients replaced in due to PD in Cycle 1 ([3]; 320 mg/m^2, 7 patients dosed): 1
Duration of therapy ([3]; 320 mg/m^2, total drug 531 mg, NSCLC, 7 prior systemic therapies): 16 weeks
Duration of therapy ([3]; 320 mg/m^2, total drug 618 mg, NSCLC, 4 prior systemic therapies): 16 weeks
Duration of therapy [3, 9]: 100+ weeks
Response [3, 9]: PR (partial response (PR))
Duration of therapy [3, 10]: over 100 weeks
Response [3, 10]: tumor regression and partial response
Patients replaced in due to PD in Cycle 1 ([3]; 420 mg/m^2, 5 patients dosed): 2
Duration of therapy ([3]; 420 mg/m^2, total drug 832 mg, NET, 0 prior systemic therapies (failed 4 prior chemo- and Yttrium-embolization procedures)): 24 weeks
Duration of therapy ([3]; 500 mg/m^2, total drug 890 mg, Unknown primary, 2 prior systemic therapies): 22 weeks
Duration of therapy ([3]; 625 mg/m^2, total drug 1175 mg, GE Junction, 3 prior systemic therapies): 12+ weeks
Duration of therapy ([3]; 625 mg/m^2, total drug 1190 mg, CRC, 3 prior systemic therapies): 12 weeks
Patients replaced in due to PD in Cycle 1 ([3]; 780 mg/m^2, 9 patients dosed): 1
Duration of therapy ([3]; 780 mg/m^2, total drug 1450 mg, Sarcoma, 3 prior systemic therapies): 16 weeks
Duration of therapy ([3]; 780 mg/m^2, total drug 1544 mg, NET, 1 prior systemic therapy): 27+ weeks
minimum effective dosage for general use of treating cancer ([3]; human dose escalating clinical trial): 320 mg/m^2
# with fever ([4]; 320 mg/m^2, no steroid premedication, 3 patients): 0
# with fever ([4]; 320 mg/m^2, steroid premedication, 4 patients): 0
# with fever ([4]; 420 mg/m^2, no steroid premedication, 3 patients, one had fever but then none after premed of additional doses): 2*
# with fever ([4]; 420 mg/m^2, steroid premedication, 2 patients): 0
# with fever ([4]; 500 mg/m^2, no steroid premedication, 1 patient): 1
# with fever ([4]; 500 mg/m^2, steroid premedication, 2 patients): 0
# with fever ([4]; 625 mg/m^2, no steroid premedication, 8 patients): 1
# with fever ([4]; 625 mg/m^2, steroid premedication, 10 patients): 0
# with fever ([4]; 780 mg/m^2, no steroid premedication, 3 patients): 1
# with fever ([4]; 780 mg/m^2, steroid premedication, 6 patients): 0
incidence of fever or chill on intravenous infusion ([4]; at therapeutically effective doses): higher incidence of fever or chill
infusional fever ([4]; patients without premedication, US trial): high likelihood of infusional fever
inducing apoptosis in certain types of cancer (certain types of cancer): highly potent
urinary excretion of the test drug derived ruthenium [5]: low urinary excretion
# weeks of treatment ([6]; Patient 1, 20 mg/m^2, Esophageal): 2 weeks
# weeks of treatment ([6]; Patient 2, 40 mg/m^2, Head & Neck): 4 weeks
Anti-tumor effect (best response) ([6]; Patient 2, 40 mg/m^2 days 1 through 4 of 21-day cycle, Head & Neck): Stable disease
# weeks of treatment ([6]; Patient 3, 80 mg/m^2, Mesothelioma): 2 weeks
# weeks of treatment ([6]; Patient 4, 160 mg/m^2, Cecum): 2 weeks
# weeks of treatment ([6]; Patient 5, 320 mg/m^2, Anal): 1 weeks
# weeks of treatment ([6]; Patient 6, 500 mg/m^2, Rectal): 4 weeks
Anti-tumor effect (best response) ([6]; Patient 6, 500 mg/m^2 days 1 through 4 of 21-day cycle, Rectal): Stable disease
# weeks of treatment ([6]; Patient 7, 500 mg/m^2, Esophageal): 2 weeks
C1D1 Hour 24 ng/mL Ru ([7]; 20 mg/m^2, plasma total Ru): 1366 ng/mL Ru
C1D8 Hour 0 ng/mL Ru ([7]; 20 mg/m^2, plasma total Ru): 528 ng/mL Ru
C2D1 Hour 0 ng/mL Ru ([7]; 20 mg/m^2, plasma total Ru): 670 ng/mL Ru
C1D1 Hour 24 ng/mL Ru ([7]; 40 mg/m^2, plasma total Ru): 2884 ng/mL Ru
C1D8 Hour 0 ng/mL Ru ([7]; 40 mg/m^2, plasma total Ru): 1197 ng/mL Ru
C2D1 Hour 0 ng/mL Ru ([7]; 40 mg/m^2, plasma total Ru): 1472 ng/mL Ru
C1D1 Hour 24 ng/mL Ru ([7]; 80 mg/m^2, plasma total Ru): 4831 ng/mL Ru
C1D1 Hour 24 ng/mL Ru ([7]; 160 mg/m^2, plasma total Ru): 4639 ng/mL Ru
C1D8 Hour 0 ng/mL Ru ([7]; 160 mg/m^2, plasma total Ru): 4000 ng/mL Ru
C2D1 Hour 0 ng/mL Ru ([7]; 160 mg/m^2, plasma total Ru): 6588 ng/mL Ru
C1D1 Hour 24 ng/mL Ru ([7]; 320 mg/m^2, plasma total Ru): 20033 ng/mL Ru
C1D8 Hour 0 ng/mL Ru ([7]; 320 mg/m^2, plasma total Ru): 7667 ng/mL Ru
C2D1 Hour 0 ng/mL Ru ([7]; 320 mg/m^2, plasma total Ru): 10126 ng/mL Ru
C1D1 Hour 24 ng/mL Ru ([7]; 420 mg/m^2, plasma total Ru): 25921 ng/mL Ru
C1D8 Hour 0 ng/mL Ru ([7]; 420 mg/m^2, plasma total Ru): 9595 ng/mL Ru
C2D1 Hour 0 ng/mL Ru ([7]; 420 mg/m^2, plasma total Ru): 14698 ng/mL Ru
C1D1 Hour 24 ng/mL Ru ([7]; 500 mg/m^2, plasma total Ru): 28070 ng/mL Ru
C1D8 Hour 0 ng/mL Ru ([7]; 500 mg/m^2, plasma total Ru): 11880 ng/mL Ru
C2D1 Hour 0 ng/mL Ru ([7]; 500 mg/m^2, plasma total Ru): 13000 ng/mL Ru
C1D1 Hour 24 ng/mL Ru ([7]; 625 mg/m^2, plasma total Ru): 35216 ng/mL Ru
C1D8 Hour 0 ng/mL Ru ([7]; 625 mg/m^2, plasma total Ru): 12303 ng/mL Ru
C2D1 Hour 0 ng/mL Ru ([7]; 625 mg/m^2, plasma total Ru): 14363 ng/mL Ru
C1D1 Hour 24 ng/mL Ru ([7]; 780 mg/m^2, plasma total Ru): 43105 ng/mL Ru
C1D8 Hour 0 ng/mL Ru ([7]; 780 mg/m^2, plasma total Ru): 17001 ng/mL Ru
C2D1 Hour 0 ng/mL Ru ([7]; 780 mg/m^2, plasma total Ru): 22125 ng/mL Ru
dose proportionality of Cmax and AUC0-168 ([7]; 20 to 780 mg/m^2): good dose proportionality
time by which peak plasma Ru levels were achieved ([7]; after start of infusion, Cycle 1 Day 1): ≤ 2 h
accumulation of Ru following dosing ([7]; noted by Cycle 1 Day 8 and Cycle 2 Day 1 levels): There is accumulation of Ru following dosing
estimated T½ ([7]; plasma total Ru, patients): 91.4 to 112 h
